Like-named read-outs stand apart in the source and are kept apart here.
Legend:
LN229 MGMT+/MMR+ cells = test: Short-term cell viability assay, LN229 MGMT+/MMR+; assay type: cell-based; conditions: Homo sapiens, read-out: IC50 against LN229 cell lines, MGMT+ MMR+
Experimental: LN229 MGMT- and MGMT+ cell lines were a gift from B. Kaina (Johannes Gutenberg University Mainz, Mainz, Germany) and grown in Gibco® Duilbecco's Modified Eagle Medium with 10% fetal bovine serum (DMEM). For each compound tested, the relationship between MGMT status and MMR status and compound activity, in terms of IC50 values ([…]), was determined by the following method. On day 1, LN229 isogenic cells of varying MGMT and MMR status were seeded in 96 well format at a density of 2000 cells/well in 100 μL of DMEM media and allowed to adhere overnight. On day 2, a drug master plate was made with 100×the desired maximal concentration of test compound and serially diluted by 2 until 100×the minimal desired concentration, with one DMSO control. Then daughter plates were created with varied concentrations from 3-times the minimal concentration to 3-times the maximal desired concentration. Afterwards, 50 μL of daughter drug plate was added to 100 μL of the seeded cells for a final concentration of 1×in triplicate. Cells were allowed to grow for 6 days. On day 7, the cells were fixed, and stained with Hoechst nuclear dye and imaged to determine growth inhibition.
For each compound tested, the relationship between MGMT status and MMR status and compound activity, in terms of IC50 values (in μM), was determined. In addition, for each compound, the therapeutic index (TI) was calculated, according to the equation MGMT TI=IC50 (MGMT+/MMR+) divided by IC50 (MGMT−/MMR+). The T1 indicates the efficacy of a compound in treating the targeted MGMT-cancer cells as compared to potential for the same compound to damage, or have adverse effects against, normal cells which are MGMT+cells, The higher the value of the TI, the safer the compound is. […] MMR RI (resistance index)=IC50 (MGMT−/MMR−) divided by IC50 (MGMT−/MMR+). The higher the value of the RI, the less likely that resistance to the compound will develop.
(§1) Short-term Cell Viability Assay. Cells were seeded in 96-well plates at 1000 or 2000 cells/well and allowed to adhere at 23° C. for 60 min and then incubated overnight at 37° C. Cells were treated with indicated concentrations of compounds in triplicate for 4-6 days prior to fixation with 3.7% paraformaldehyde and nuclear staining with 1 μg/mL Hoechst 33342 dye. Cells were imaged on a Cytation 3 imaging reader (BioTek) and quantified using CellProfiler software. For in vitro short-term growth delay experiments, IC50 values were determined from the nonlinear regression equation, [inhibitor] vs normalized response with variable slope.

LN229 MGMT+ shMSH6 cells = test: Short-term viability assay, LN229 MGMT+ shMSH6; assay type: cell-based; conditions: Homo sapiens, LN-229, Table III, read-out: IC50 against LN229 cell lines, MGMT MMR−
Experimental: (§2) The activity of KL-50 in MGMT-LN229 cells engineered to lack expression of other key MMR proteins including MSH6, MLH1, PMS2, and MSH3 was also confirmed. Western blotting was performed in LN229 MGMT+/−cells with stable expression of shRNA targeting MSH6, MLH1, PMS2, or MSH3 to confirm depletion of the shRNA targets. In shMSH6 cells, there was reduced expression of MSH2, and in shMLH1 cells, there was loss of PMS2, due to destabilization in the setting of loss of their heterodimeric partners. GAPDH serves as loading control. […] Short-term viability assay curves for KL-50 in LN229 MGMT+/−, MMR+/shMSH6 cells. […] Short-term viability assay curves for KL-50 in LN229 MGMT+/−, MMR+/shMLH1 cells. […] Short-term viability assay curves for KL-50 in LN229 MGMT+/−, MMR+/shPMS2 cells. […] Short-term viability assay curves for KL-50 in LN229 MGMT+/−, MMR+/shMSH3 cells.
MMR Protein shRNA Knockdown. pGIPZ lentiviral shRNA vectors targeting MSH2, MSH6, MLH1, PMS2, and MSH3 were purchased from Horizon Discovery (Table IV). […]
Short-term Cell Viability Assay. […] Cells were imaged on a Cytation 3 imaging reader (BioTek) and quantified using CellProfiler software. For in vitro short-term growth delay experiments, IC50 values were determined from the nonlinear regression equation, [inhibitor] vs normalized response with variable slope.

LN229 MGMT− shMSH3 cells = test: Short-term viability assay, LN229 MGMT- shMSH3; assay type: cell-based, human; conditions: for IC50: Homo sapiens, LN-229, Table III, read-out: IC50 against LN229 cell lines, MGMT− MMR−; for MGMT− RI: Table III
Experimental: as §2
MMR Protein shRNA Knockdown. pGIPZ lentiviral shRNA vectors targeting MSH2, MSH6, MLH1, PMS2, and MSH3 were purchased from Horizon Discovery (Table IV). Lentiviral particles were produced in HEK293T cells via co-transfection with lentiviral shRNA plasmid, pCMV-VSV-G envelope plasmid (Addgene, #8454) and psPAX2 packaging plasmid (Addgene, #12260), using Lipofectamine 3000 Reagent (Invitrogen, L3000001) per manufacturer's protocol. Viral particles were harvested 48 h post-transfection and used to transduce LN229 MGMT+/−cells in the presence of 8 μg/mL polybrene. Selection of pooled cells with lentiviral expression was established with 1 μg/mL puromycin 48 h post-transduction for 3 to 4 days. Single cell cloning was performed by limiting dilution and protein knockdown was confirmed by western blotting.
as §1

MGMT−/MMR− cells = test: IR alkaline comet assay, LN229 MGMT-/MMR-, time course; assay type: cell-based, human; conditions: time points 2-24 h
Experimental: The IR alkaline comet assay, adapted for ICL detection was performed to determine if ICLs were formed in MGMT-cells treated with KL-50. In this assay, cells were sequentially exposed to genotoxins and ionizing radiation, and then analyzed by single cell alkaline gel electrophoresis. Attenuation of the IR-induced comet tail is indicative of ICL formation.
IR Alkaline Comet Assay. This assay was performed utilizing the CometAssay™ Kit (Trevigen) according to the alkaline assay protocol, with the addition of slide irradiation post-lysis. Cells were trypsinized, washed with 1×PBS, added to melted Comet LMAgarose (Trevigen), and spread on Trevigen CometSlides at a density of 1000 cells per sample in 50 μL. Lysis solution (Trevigen) with 10% DMSO was added overnight at 4° C. Slides were removed from lysis buffer and irradiated to 0 or 10 Gy using an XRAD 320 X-Ray System (Precision X-Ray) at 320 kV, 12.5 mA, and 50.0 cm SSD, with a 2 mm Al filter and 20 cm×20 cm collimator. Slides were then placed in alkaline buffer (200 mM NaOH, 1 mM EDTA) for 45 min, followed by electrophoresis in 850 mL alkaline buffer for 45 min at 4° C. Slides were washed and stained with SYBR gold (Invitrogen) per Trevigen assay protocol. Slides were imaged on a Cytation 3 imaging reader (BioTek), and comets were analyzed using CometScore 2.0 software (TriTek).

SMILES	IC50 (LN229 MGMT+/MMR+ cells; LN-229, Table III, shRNA None) [µM]	IC50 (LN229 MGMT+/MMR+ cells; LN-229, Table II) [µM]	IC50 (LN229 MGMT+ shMSH6 cells) [µM]	IC50 (LN229 MGMT− shMSH3 cells) [µM]	MGMT− RI (LN229 MGMT− shMSH3 cells)	DNA damage in unirradiated samples (MGMT−/MMR− cells)	DNA mobility after IR, rate of ICL formation (MGMT−/MMR− cells)	IC50 (LN229 MGMT+/MMR+ cells; LN-229, 144 h, Table 1, 6 days growth, Hoechst nuclear count) [µM]
NC(=O)c1ncn2c(=O)n(CCF)nnc12 [KL-50]	285 ± 46	587 ± 166	362 ± 41	7.9 ± 0.3	0.6	maximal damage at 2 h	time-dependent decrease in DNA mobility	–
Cn1nnc2c(C(N)=O)ncn2c1=O [TMZ, 4-methyl-5-oxo-2,3,4,6,8-pentazabicyclo[4.3.0]nona-2,7,9-triene-9-carboxamide, reference compound]	697 ± 60	742 ± 468	929 ± 201	3.1 ± 0.6	0.6	maximal damage at 2 h	did not induce a statistically significant decrease in DNA migration within 24 h	> 100
